Columns and labels:
Unfractionated heparin = assay: aPTT clotting assay, UFH 0.4 U/mL in plasma (Example 10); assay type: biochemical; conditions: unfractionated heparin 0.4 U/mL in plasma; aPTT clotting
Protocol: aPTT clotting Assay: Unfractionated heparin was mixed with plasma at a final concentration of 0.4 U/mL (or concentration which increases aPTT time to between 120 and 300 seconds). […] The ACL Elite Hemostasis analyzer (Beckman Coulter™) was used to add aPTT reagent (HemosIL SynthASil) to supplemented plasma. Clotting was initiated by addition of CaCl2 and time to clot was recorded.

enoxaparin = assay: FXa amidolytic assay (Example 10), enoxaparin; conditions: read-out: Enox FXa EC50; enoxaparin 0.1 ug/ml; human antithrombin, bovine Factor Xa
Protocol: (§1) Two μl of test agent are added (range between 0.01 and 23 ug/ml) and incubated for 5 minutes at 23° C. Bovine Factor Xa was added to a final concentration of 0.636 nkat/mL and incubated for a further 10 minutes at 23° C.

fondaparinux = assay: FXa amidolytic assay (Example 10), fondaparinux; conditions: read-out: Fondap FXa EC50; fondaparinux 0.02 μg/mL; human antithrombin, bovine Factor Xa
Protocol: as §1

tinzaparin = assay: FXa amidolytic assay (Example 10), tinzaparin; conditions: read-out: Tinzap FXa EC50; tinzaparin 0.1 ug/ml; human antithrombin, bovine Factor Xa
Protocol: as §1

| SMILES | EC50 (Unfractionated heparin) [nM] | EC50 (enoxaparin) [nM] | EC50 (fondaparinux) [nM] | EC50 (tinzaparin) [nM] |
| --- | --- | --- | --- | --- |
| COc1ccc(NC(=O)[C@H](CCCCN)NC(=O)c2cc(NC(=O)[C@H](C)NC(=O)c3cc(NC(=O)[C@H](CCCCN)NC(=O)c4cc(NC(=O)[C@@H](N)CCCCN)ccc4OC)ccc3OC)ccc2OC)cc1C(N)=O [Compound 201] | 6000 | 974 |  |  |
| COc1ccc(NC(=O)[C@H](CCCCN)NC(=O)c2cc(NC(=O)[C@H](CCCCN)NC(=O)c3cc(NC(=O)[C@H](C)NC(=O)c4cc(NC(=O)[C@@H](N)CCCCN)ccc4OC)ccc3OC)ccc2OC)cc1C(N)=O [Compound 202] | 4550 | 398 |  |  |
| COc1ccc(NC(=O)[C@H](CCCNC(=N)N)NC(=O)c2cc(NC(=O)[C@H](CCCCN)NC(=O)c3cc(NC(=O)[C@H](CCCCN)NC(=O)c4cc(NC(=O)[C@@H](N)CCCCN)ccc4OC)ccc3OC)ccc2OC)cc1C(N)=O [Compound 203] | 2990 | 283 |  |  |
| COc1ccc(NC(=O)[C@H](CCCCN)NC(=O)c2cc(NC(=O)[C@H](CCCNC(=N)N)NC(=O)c3cc(NC(=O)[C@H](CCCCN)NC(=O)c4cc(NC(=O)[C@@H](N)CCCCN)ccc4OC)ccc3OC)ccc2OC)cc1C(N)=O [Compound 204] | 3020 | 239 |  |  |
| COc1ccc(NC(=O)[C@H](CCCCN)NC(=O)c2cc(NC(=O)[C@H](CCCCN)NC(=O)c3cc(NC(=O)[C@H](CCCNC(=N)N)NC(=O)c4cc(NC(=O)[C@@H](N)CCCCN)ccc4OC)ccc3OC)ccc2OC)cc1C(N)=O [Compound 205] |  | 202 |  |  |
| COc1ccc(NC(=O)[C@H](CCCCN)NC(=O)c2cc(NC(=O)[C@H](CCCCN)NC(=O)c3cc(NC(=O)[C@H](CCCCN)NC(=O)c4cc(NC(=O)[C@@H](N)CCCNC(=N)N)ccc4OC)ccc3OC)ccc2OC)cc1C(N)=O [Compound 206] | 1960 | 148 |  |  |
| COc1ccc(NC(=O)[C@@H](CCCNC(=N)N)NC(=O)c2cc(NC(=O)[C@@H](CCCNC(=N)N)NC(=O)c3cc(NC(=O)[C@@H](CCCNC(=N)N)NC(=O)c4cc(NC(=O)[C@H](N)CCCNC(N)=O)ccc4OC)ccc3OC)ccc2OC)cc1C(N)=O [Compound 207] |  | 39 |  |  |
| COc1ccc(C(N)=O)cc1NC(=O)[C@@H](CCCNC(=N)N)NC(=O)c1cc(NC(=O)[C@@H](CCCNC(=N)N)NC(=O)c2cc(NC(=O)[C@@H](CCCNC(=N)N)NC(=O)c3cc(NC(=O)[C@H](N)CCCNC(=N)N)ccc3OC)ccc2OC)ccc1OC [Compound 210] | 2550 | 82 | 1400 |  |
| COc1ccc(NC(=O)[C@@H](CCCNC(=N)N)NC(=O)c2cc(NC(=O)[C@@H](CCCNC(=N)N)NC(=O)c3cccc(NC(=O)[C@@H](CCCNC(=N)N)NC(=O)c4cc(NC(=O)[C@H](N)CCCNC(=N)N)ccc4OC)n3)ccc2OC)cc1C(N)=O [Compound 211] | 5900 | 137 | 2870 |  |
| COc1ccc(NC(=O)[C@@H](CCCNC(=N)N)NC(=O)c2cc(NC(=O)[C@@H](CCCNC(=N)N)NC(=O)c3cc(NC(=O)[C@@H](CCCNC(=N)N)NC(=O)c4cccc(NC(=O)[C@H](N)CCCNC(=N)N)c4)ccc3OC)ccc2OC)cc1C(N)=O [Compound 212] | 883 | 73 | 259 |  |
| COc1ccc(NC(=O)[C@H](CCCCN)NC(=O)c2cc(NC(=O)[C@H](CCCCN)NC(=O)c3cc(NC(=O)[C@@H](N)CCCCN)ccc3OC)ccc2OC)cc1C(=O)N[C@@H](CCCCN)C(=O)Nc1cccc(C(N)=O)c1 [Compound 213] | 893 | 78 | 354 |  |
| COc1ccc(NC(=O)[C@H](CCCCN)NC(=O)c2cccc(NC(=O)[C@H](CCCCN)NC(=O)c3cc(NC(=O)[C@H](CCCCN)NC(=O)c4cc(NC(=O)[C@@H](N)CCCCN)ccc4OC)ccc3OC)c2)cc1C(N)=O [Compound 214] | 1910 | 87 | 432 |  |
| COc1ccc(NC(=O)[C@H](CCCCN)NC(=O)c2cc(NC(=O)[C@H](CCCCN)NC(=O)c3cccc(NC(=O)[C@H](CCCCN)NC(=O)c4cc(NC(=O)[C@@H](N)CCCCN)ccc4OC)c3)ccc2OC)cc1C(N)=O [Compound 215] | 2850 | 73 | 288 |  |
| COc1ccc(NC(=O)[C@H](CCCCN)NC(=O)c2cc(NC(=O)[C@H](CCCCN)NC(=O)c3cc(NC(=O)[C@H](CCCCN)NC(=O)c4cccc(NC(=O)[C@@H](N)CCCCN)c4)ccc3OC)ccc2OC)cc1C(N)=O [Compound 216] | 1220 | 347 | 7870 | 191 |
| CCOc1ccc(NC(=O)[C@@H](CCCNC(=N)N)NC(=O)c2cc(NC(=O)[C@@H](CCCNC(=N)N)NC(=O)c3cc(NC(=O)[C@@H](CCCNC(=N)N)NC(=O)c4cc(NC(=O)[C@H](N)CCCNC(=N)N)ccc4OC)ccc3OC)ccc2OC)cc1C(N)=O [Compound 217] | 1120 | 74 | 252 |  |
| CCOc1ccc(NC(=O)[C@@H](CCCNC(=N)N)NC(=O)c2cc(NC(=O)[C@H](N)CCCNC(=N)N)ccc2OC)cc1C(=O)N[C@H](CCCNC(=N)N)C(=O)Nc1ccc(OC)c(C(=O)N[C@H](CCCNC(=N)N)C(=O)Nc2ccc(OC)c(C(N)=O)c2)c1 [Compound 218] | 853 | 74 | 176 |  |
| COc1cc(OC)c(C(=O)N[C@H]2CC[C@H](NC(=O)c3cc(C(=O)N[C@H]4CC[C@H](NC(=O)c5cc(C(=O)NCCN(C)C)c(OC)cc5OC)CC4)c(OCCCCCNC(=N)N)cc3OCCCCCNC(=N)N)CC2)cc1C(=O)NCCN(C)C [Compound 220] | 5450 | 125 |  |  |
| COc1cc(OC)c(C(=O)N[C@H]2CC[C@H](NC(=O)c3cc(C(=O)NCCN(C)C)c(OCCCCCNC(=N)N)cc3OCCCCCNC(=N)N)CC2)cc1C(=O)N[C@H]1CC[C@@H](NC(=O)c2cc(C(=O)NCCN(C)C)c(OCCCCCNC(=N)N)cc2OCCCCCNC(=N)N)CC1 [Compound 222] | 2590 | 173 | 955 | 115 |
| COc1ccc(NC(=O)[C@H](CCCNC(=N)N)NC(=O)c2cc(NC(=O)[C@H](CCCNC(=N)N)NC(=O)c3cc(NC(=O)[C@H](CCCNC(=N)N)NC(=O)c4cc(NC(=O)[C@H](C)NC(=O)CCCCNC(=N)N)ccc4OC)ccc3OC)ccc2OC)cc1C(N)=O [Compound 223] | 4090 | 316 | 802 | 248 |
| COc1cc(OC)c(C(=O)N[C@H]2CC[C@@H](NC(=O)c3cc(C(=O)NCCN(C)C)c(OCCNC(=N)N)cc3OCCNC(=N)N)CC2)cc1C(=O)N[C@H]1CC[C@@H](NC(=O)c2cc(C(=O)NCCN(C)C)c(OCCNC(=N)N)cc2OCCNC(=N)N)CC1 [Compound 225] | 12100 | 1060 |  | 359 |
| COc1cc(OC)c(C(=O)N[C@H]2CC[C@H](NC(=O)c3cc(C(=O)NCCN(C)C)c(OCCNC(=N)N)cc3OCCNC(=N)N)CC2)cc1C(=O)N[C@H]1CC[C@H](NC(=O)c2cc(C(=O)NCCN(C)C)c(OCCNC(=N)N)cc2OCCNC(=N)N)CC1 [Compound 226] | 12900 | 852 |  | 343 |
| CN(C)CCNC(=O)c1cc(C(=O)NC2CCC(NC(=O)c3cc(C(=O)NCCN(C)C)c(OCCCCCN)cc3OCCCCCN)CC2)c(OCCCCCN)cc1OCCCCCN (stereo not shown) [Compound 227] | > 10000 |  |  |  |
| COc1ccc(NC(=O)[C@@H](CCCNC(=N)N)NC(=O)CCCCNC(=N)N)cc1C(=O)N[C@H](CCCNC(=N)N)C(=O)Nc1ccc(OC)c(C(=O)N[C@H](CCCNC(=N)N)C(=O)Nc2ccc(OC)c(C(=O)N[C@H](CCCNC(=N)N)C(=O)Nc3ccc(OCCNC(=N)N)c(C(N)=O)c3)c2)c1 [Compound 291] | 2480 | 47 | 1180 |  |
| COc1ccc(NC(=O)[C@H](CCCCN)NC(=O)c2cc(NC(=O)[C@H](CCCCN)NC(=O)c3cc(NC(=O)[C@H](CCCCN)NC(=O)c4cc(NC(=O)[C@H](CCCCN)NC(=N)N)ccc4OC)ccc3OC)ccc2OC)cc1C(N)=O [Compound 292] |  | 450 | 4790 |  |
| COc1ccc(NC(=O)[C@@H](CCCCN)NC(=O)c2c(OC)ccc(NC(=O)[C@@H](CCCCN)NC(=O)c3c(OC)ccc(NC(=O)[C@@H](CCCCN)NC(=O)c4c(OC)ccc(NC(=O)[C@H](N)CCCCN)c4OC)c3OC)c2OC)c(OC)c1C(N)=O [Compound 293] |  | > 10000 | > 10000 |  |
| CCOC(=O)CC(=O)N[C@@H](CCCCN)C(=O)Nc1ccc(OC)c(C(=O)N[C@@H](CCCCN)C(=O)Nc2ccc(OC)c(C(=O)N[C@@H](CCCCN)C(=O)Nc3ccc(OC)c(C(=O)N[C@@H](CCCCN)C(=O)Nc4ccc(OC)c(C(N)=O)c4)c3)c2)c1 [Compound 337] |  | 225 | 1830 | 174 |
| COC(=O)CCC(=O)N[C@@H](CCCCN)C(=O)Nc1ccc(OC)c(C(=O)N[C@@H](CCCCN)C(=O)Nc2ccc(OC)c(C(=O)N[C@@H](CCCCN)C(=O)Nc3ccc(OC)c(C(=O)N[C@@H](CCCCN)C(=O)Nc4ccc(OC)c(C(N)=O)c4)c3)c2)c1 [Compound 338] |  | 241 | 2750 | 176 |
| COC(=O)CCCC(=O)N[C@@H](CCCCN)C(=O)Nc1ccc(OC)c(C(=O)N[C@@H](CCCCN)C(=O)Nc2ccc(OC)c(C(=O)N[C@@H](CCCCN)C(=O)Nc3ccc(OC)c(C(=O)N[C@@H](CCCCN)C(=O)Nc4ccc(OC)c(C(N)=O)c4)c3)c2)c1 [Compound 341] |  | 198 | 1580 | 138 |
| COc1ccc(NC(=O)[C@H](CCCCN)NC(=O)c2cc(NC(=O)[C@H](CCCCN)NC(=O)c3cc(NC(=O)[C@H](CCCCN)NC(=O)c4cc(NC(=O)[C@H](CCCCN)NC(=O)c5ccccc5C(=O)O)ccc4OC)ccc3OC)ccc2OC)cc1C(N)=O [Compound 343] |  | 235 | 932 | 201 |

— patent US20110178104A1, “Anti-Heparin Compounds” (POLYMEDIX INC., priority 2010, published 2011)
